Reference: patent US6436962B1, “Arylhydantoin derivatives and uses thereof” (Merck & Co., Inc., priority 1999, dated 2002)
Structures can show the parent of a compound that is named as a salt.

target: T1, human alpha 1a adrenergic receptor (Homo sapiens, UniProt P35348); assay: Screening assay: alpha 1a adrenergic receptor binding ([125I]-HEAT competition); settings: membranes from stably transfected human alpha 1a cell line (ATCC CRL 11140), 100 pM [125I]-HEAT
T1 sequence (P35348 1-466): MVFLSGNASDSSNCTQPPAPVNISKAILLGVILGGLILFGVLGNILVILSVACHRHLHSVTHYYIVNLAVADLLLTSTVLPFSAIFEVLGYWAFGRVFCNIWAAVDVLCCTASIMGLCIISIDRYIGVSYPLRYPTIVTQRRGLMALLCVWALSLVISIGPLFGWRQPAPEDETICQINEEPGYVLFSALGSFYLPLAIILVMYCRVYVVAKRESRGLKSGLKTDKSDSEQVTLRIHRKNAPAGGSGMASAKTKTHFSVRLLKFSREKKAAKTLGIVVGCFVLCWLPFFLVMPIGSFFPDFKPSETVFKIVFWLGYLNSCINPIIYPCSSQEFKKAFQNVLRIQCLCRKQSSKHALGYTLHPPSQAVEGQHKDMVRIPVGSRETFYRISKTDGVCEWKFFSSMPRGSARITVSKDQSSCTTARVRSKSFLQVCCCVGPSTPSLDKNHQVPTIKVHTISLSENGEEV
Protocol: Screening Assay: Alpha 1a Adrenergic Receptor Binding
These competition binding reactions (total volume=200 μl) contained 50 mM Tris-HCl pH. […] Reactions were incubated at room temperature for one hour with shaking. Reactions were filtered onto Whatman GF/C glass fiber filters with a Inotec 96 well cell harvester. Filters were washed three times with ice cold buffer and bound radioactivity was determined (Ki).

Row | Ki | Structure (SMILES)
1 | < 20 nM | Cc1ccc(C2(c3ccccc3)NC(=O)N(CCCN3CCC(C#N)(c4ccccc4)CC3)C2=O)cc1 (racemic) [Compound 11, (+/−)-3-{3-[4-phenyl4-cyanopiperidin-1-yl]propyl-}5-(4-methylphenyl)-5-phenyl-imidazolin-2,4-dione trifluoroacetate]
2 | < 20 nM | Cc1ccc(C2(c3ccccn3)NC(=O)N(CCCN3CCC(C#N)(c4ccccc4C)CC3)C2=O)cc1 (racemic) [Compound 13, (+/−)-3-{3-[4-(2-methylphenyl)-4-cyanopiperidin-1-yl]propyl}-5-(4-methylphenyl)-5-(2-pyridyl)-imidazolin-2,4-dione]
3 | < 20 nM | CCCCCC1(c2ccc(C)cc2)NC(=O)N(CCCN2CCC(C#N)(c3ccccc3C)CC2)C1=O (racemic) [Compound 16]
4 | < 20 nM | CCCCCC1(c2ccc(F)c(F)c2)NC(=O)N(CCCN2CCC(C#N)(c3ccccc3C)CC2)C1=O (racemic) [Compound 17, (+/−)-3-{3-[4-(2-methylphenyl)-4-cyanopiperidin-1-yl]propyl}-5-pentyl-5-(3,4-difluoro-phenyl)-imdazolin-2,4-dione hydrochloride]
5 | < 20 nM | Cc1ccc(C2(C(C)C)NC(=O)N(CCCN3CCC(C#N)(c4ccccc4C)CC3)C2=O)cc1 (racemic) [Compound 31, (+/−)-3-{3-[4-(2-methylphenyl)4-cyanopiperidin-1-yl]propyl}-5-isopropyl-5-(4-methylphenyl)-imidazolin-2,4-dione hydrochloride]
6 | < 20 nM | Cc1ccc(C2(c3ccc(C)cc3)NC(=O)N(CCCN3CCC(C#N)(c4ccccc4)CC3)C2=O)cc1 [Compound 1, 3-[3-(4-Phenyl-4-cyanopiperidin-1-yl)propyl]-5,5-bis(4-methylphenyl)-imidazolin-2,4-dione]
7 | < 20 nM | Cc1ccc(C2(c3ccc(C)cc3)NC(=O)N(CCCN3CCC(c4ccccn4)CC3)C2=O)cc1 [Compound 3, 3-{3-[4-(2-Pyridyl)piperidin-1-yl]propyl}-5,5-bis(4-methylphenyl)-imidazolin-2,4-dione]
8 | < 20 nM | Cc1ccc(C2(c3ccc(C)cc3)NC(=O)N(CCCN3CCC4(C=Cc5ccccc54)CC3)C2=O)cc1 [Compound 4, 3-{3-(spiro[1H-indeno-1,4′-piperidin]-1′-yl)propyl}-5,5-bis(4-methylphenyl)-imidazolin-2,4-dione]
9 | < 20 nM | Cc1ccccc1C1(C#N)CCN(CCCN2C(=O)NC(c3ccc(F)cc3)(c3ccc(F)cc3)C2=O)CC1 [Compound 12, 3-{3-[4-(2-methylphenyl)-4-cyanopiperidin-1-yl]propyl}-5,5-bis(4-fluorophenyl)-imidazolin-2,4-dione hydrochloride]
10 | < 20 nM | Cc1ccc(C2(c3ccc(C)cc3)NC(=O)N(CCCN3CCN(c4ccccc4C(N)=O)CC3)C2=O)cc1 [Compound 25, 3-{3-[4-(2-aminocarbonylphenyl)-piperazin-1-yl]propyl}-5,5-bis(4-methylphenyl)-imidazolin-2,4-dione dihydrochloride]
11 | < 20 nM | Cc1ccc(C2(c3ccc(C)cc3)NC(=O)N(CCCN3CCC(c4ccc(F)cc4C#N)CC3)C2=O)cc1 [Compound 26]
12 | < 20 nM | Cc1ccc(C2(c3ccc(C)cc3)NC(=O)N(CCCN3CCN(c4ccccc4C#N)CC3)C2=O)cc1 [Compound 27, 3-{3-[4-(2-cyanophenyl)-piperazin-1-yl]propyl}-5,5-bis(4-methylphenyl)-imidazolin-2,4-dione hydrochloride]
13 | < 20 nM | Cc1ccc(C2(c3ccc(C)cc3)NC(=O)N(CCCCN3CCC4(C=Cc5ccccc54)CC3)C2=O)cc1 [Compound 28, 3-{4-(spiro[indeno-1,4′-piperidin]-1′-yl)butyl}-5,5-bis(4-methylphenyl)-imidazolin-2,4-dione]
14 | < 20 nM | Cc1ccc(C2(c3ccc(C)cc3)NC(=O)N(CCCN3CCC4(CC3)OC(=O)N(CC(F)(F)F)c3ccc(Cl)cc34)C2=O)cc1 [Compound 29, 3-{3-[1-(2,2,2-trifluoroethyl)-6-chloro-spiro[4H-3,1-benzoxazine-4,4′-piperidin]-2(1H)-on-1′-yl]propyl}-5,5-bis(4-methylphenyl)-imidazolin-2,4-dione]
15 | < 20 nM | Cc1ccc(C2(c3ccc(C)cc3)C(=O)N(CCCN3CCC(C#N)(c4ccccc4C)CC3)C(=O)N2C)cc1 [Compound 36, 1-Methyl-3-{3-[4-(2-methylphenyl)-4-cyanopiperidin-1-yl]propyl}-bis-5,5-(4-methylphenyl)-imidazolin-2,4-dione]

Row | Structure (SMILES) | Ki
16 | Cc1ccc(C2(c3ccc(C)cc3)NC(=O)N(CCCN3CCC4(CC3)C(=O)Cc3ccccc34)C2=O)cc1 [Compound 5, 3-{3-(2,3-dihydro-spiro[indeno-1,4′-piperidin]-2(3H)-on-1′-yl)propyl}-5,5-bis(4-methylphenyl)-imidazolin-2,4-dione] | < 20 nM
17 | Cc1ccc(C2(c3ccc(C)cc3)NC(=O)N(CCCN3CCC4(CC3)OC(=O)Nc3ccccc34)C2=O)cc1 [Compound 6, 3-{3-(spiro[4H-3,1-benzoxazine-4,4′-piperidin]-2(1H)-on-1′-yl)propyl}-5,5-bis(4-methylphenyl)-imidazolin-2,4-dione] | < 20 nM
18 | Cc1ccc(C2(c3ccc(C)cc3)NC(=O)N(CCCN3CCC4(CC3)OC(=O)Nc3ccc(Cl)cc34)C2=O)cc1 [Compound 7, 3-{3-(6-chloro-spiro[4H-3,1-benzoxazine-4,4′-piperidin]-2(1H)-on-1′-yl)propyl}-5,5-bis(4-methylphenyl)-imidazolin-2,4-dione] | < 20 nM
19 | Cc1ccc(C2(c3ccc(C)cc3)NC(=O)N(CCCN3CCC4(CC3)OC(=O)N(C)c3ccc(Cl)cc34)C2=O)cc1 [Compound 8, 3-{3-(1-methyl-6-chloro-spiro[4H-3,1-benzoxazine-4,4′-piperidin]-2(1H)-on-1′yl)propyl}5,5-bis(4-methylphenyl)-imidazolin-2,4-dione] | < 20 nM
20 | Cc1ccc(C2(c3ccc(C)cc3)NC(=O)N(CCCN3CCC4(CC3)OC(=O)N(C)c3ccccc34)C2=O)cc1 [Compound 9] | < 20 nM
21 | N#CC1(c2ccccc2)CCN(CCCN2C(=O)NC(c3ccc(Cl)cc3)(c3ccc(Cl)cc3)C2=O)CC1 [Compound 10, 3-{3-[4-phenyl-4-cyanopiperidin-1-yl]propyl}-5,5-bis(4-chlorophenyl)-imidazolin-2,4-dione hydrochloride] | < 20 nM
22 | CN1C(=O)OC2(CCN(CCCN3C(=O)NC(c4ccc(Cl)cc4)(c4ccc(Cl)cc4)C3=O)CC2)c2cc(Cl)ccc21 [Compound 14, 3-{3-(1-methyl-6-chloro-spiro[4H-3,1-benzoxazine-4,4′-piperidin]-2(1H)-on-1′-yl)propyl}1-5,5-bis(4-chlorophenyl)-imidazolin-2,4-dione] | < 20 nM
23 | Cc1ccc(C2(c3ccc(C)cc3)NC(=O)N(CCCN3CCC4(CC3)C(=O)Nc3ccccc34)C2=O)cc1 [Compound 21, 3-{3-(spiro[3H-indole-3,4′-piperidin]-2(1H)-on-1′-yl)propyl}-5,5-bis(4-methylphenyl)-imidazolin-2,4-dione hydrochloride] | < 20 nM
24 | Cc1ccc(C2(c3ccc(C)cc3)NC(=O)N(CCCN3CCC4(CC3)OC(=O)Nc3ccc(F)cc34)C2=O)cc1 [Compound 23, 3-{3-(6-fluoro-spiro[4H-3,1-benzoxazine4,4′-piperidin]-2(1H)-on-1′-yl)propyl}bis(4-methylphenyl)-imidazolin-2,4-dione] | < 20 nM

test system: not given; assay: not given; settings: not given

Row | melting point | Structure (SMILES)
25 | 53 to 55 °C | COCN1C(=O)N(CCCN2CCC(C#N)(c3ccccc3C)CC2)C(=O)C1(c1ccc(C)cc1)c1ccc(C)cc1
26 | 160 to 163 °C | Cc1ccc(C2(c3ccc(C)cc3)NC(=O)N(CCCN3CCN(c4ccccc4C(N)=O)CC3)C2=O)cc1 (as salt: hydrochloride) [Compound 25, 3-{3-[4-(2-aminocarbonylphenyl)-piperazin-1-yl]propyl}-5,5-bis(4-methylphenyl)-imidazolin-2,4-dione dihydrochloride]
27 | 236 °C | Cc1ccc(C2(c3ccc(C)cc3)NC(=O)N(CCCN3CCN(c4ccccc4C#N)CC3)C2=O)cc1 (as salt: hydrochloride) [Compound 27, 3-{3-[4-(2-cyanophenyl)-piperazin-1-yl]propyl}-5,5-bis(4-methylphenyl)-imidazolin-2,4-dione hydrochloride]
28 | 160 to 163 °C | COC(=O)C1CN(CCCN2C(=O)NC(c3ccc(C)cc3)(c3ccc(C)cc3)C2=O)CCC1Nc1ccccc1Cl.Cl (racemic)
29 | 222 to 223 °C | CC1(c2ccccc2)NC(=O)N(CCCN2CCC(C#N)(c3ccccc3)CC2)C1=O (racemic) (as salt: hydrochloride)
30 | 144 to 155 °C | Cc1ccc(C2(c3ccc(C)cc3)NC(=O)N(CCCN3CCC(n4c(=O)[nH]c5cc(Cl)ccc54)CC3)C2=O)cc1 [Compound 34, 3-{3-[4-(5-chloro-2-oxo-1-benzimidazolinyl)piperidin-1-yl]propyl}-5,5-bis(4-methylphenyl)-imidazolin-2,4-dione]

Row | Structure (SMILES) | melting point
31 | Cc1ccc(C2(c3ccc(C)cc3)NC(=O)N(CCCN3CCC4(CC3)C(=O)Nc3ccccc34)C2=O)cc1 (as salt: hydrochloride) [Compound 21, 3-{3-(spiro[3H-indole-3,4′-piperidin]-2(1H)-on-1′-yl)propyl}-5,5-bis(4-methylphenyl)-imidazolin-2,4-dione hydrochloride] | > 210 °C
